Data from ChEMBL document CHEMBL4354854, “DNA-Encoded Library Technology-Based Discovery, Lead Optimization, and Prodrug Strategy toward Structurally Unique Indoleamine 2,3-Dioxygenase-1 (IDO1) Inhibitors” (J Med Chem, 2020).
Values after ≈ are worked out from the molar mass of the structure shown. Active and inactive are the calls of the source. The rule behind the calls is not given here.

Tests used:
[1] = Cytotoxicity against human PBMC cells assessed as reduction in cell viability measured after 48 hrs by Celltiter-glo luminescence assay; type: cell-based
[2] = biological target: T1, Indoleamine 2,3-dioxygenase 1 (Homo sapiens, UniProt P14902)
Target sequence in this assay (P14902 whole entry): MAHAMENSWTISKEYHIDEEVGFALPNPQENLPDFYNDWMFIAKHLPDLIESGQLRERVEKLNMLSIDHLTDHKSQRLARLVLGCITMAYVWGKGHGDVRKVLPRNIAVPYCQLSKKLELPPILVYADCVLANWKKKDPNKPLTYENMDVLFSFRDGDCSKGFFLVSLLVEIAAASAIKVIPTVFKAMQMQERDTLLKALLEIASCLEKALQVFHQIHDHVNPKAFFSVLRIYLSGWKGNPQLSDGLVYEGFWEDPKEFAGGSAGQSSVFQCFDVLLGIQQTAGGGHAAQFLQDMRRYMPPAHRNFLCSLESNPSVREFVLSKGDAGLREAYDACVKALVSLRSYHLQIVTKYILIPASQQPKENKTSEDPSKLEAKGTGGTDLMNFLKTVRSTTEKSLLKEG
Description: Inhibition of IDO1 in IFN-gamma/LPS stimulated human PBMC assessed as reduction in kynurenine production after 48 hrs by RapidFire MS assay

[3] = Clearance in mouse; type: ADME, organism-based; settings: in vivo
[4] = Solubility of the compound in fasted state simulated intestinal fluid using amorphous compound; type: physicochemical
[5] = Oral bioavailability in Han Wistar rat assessed as (S)-Ethyl 6-Bromo-4-(1H-indazole-7-carboxamido)spiro-[chroman-2,4'-piperidine]-1'-carboxylate level at 4 mg/kg equiv of parent compound administered via gavage using amorphous compound by LC-MS/MS analysis; type: ADME, organism-based; settings: in vivo
[6] = Oral bioavailability in Han Wistar rat assessed as (S)-Ethyl 6-Bromo-4-(1H-indazole-7-carboxamido)spiro-[chroman-2,4'-piperidine]-1'-carboxylate level at 25 mg/kg equiv of parent compound administered via gavage using amorphous compound by LC-MS/MS analysis; type: ADME, organism-based; settings: in vivo
[7] = Oral bioavailability in Han Wistar rat assessed as (S)-Ethyl 6-Bromo-4-(1H-indazole-7-carboxamido)spiro-[chroman-2,4'-piperidine]-1'-carboxylate level at 82 mg/kg equiv of parent compound administered via gavage using amorphous compound by LC-MS/MS analysis; type: ADME, organism-based; settings: in vivo
[8] = Clearance in mouse relative to hepatic blood flow; type: ADME; settings: in vivo
[9] = Clearance in rat; type: ADME; settings: in vivo
[10] = Clearance in rat relative to hepatic blood flow; type: ADME; settings: in vivo
[11] = Clearance in monkey; type: ADME, Macaca mulatta; settings: rhesus monkey, in vivo
[12] = Clearance in monkey relative to hepatic blood flow; type: ADME, Macaca mulatta; settings: rhesus monkey, in vivo
[13] = Solubility of the compound in fasted state simulated intestinal fluid using crystalline compound; type: physicochemical
[14] = Oral bioavailability in Han Wistar rat at 5 mg/kg administered via gavage using crystalline compound by LC-MS/MS analysis; type: ADME, organism-based; settings: in vivo
[15] = Oral bioavailability in Han Wistar rat at 30 mg/kg administered via gavage using crystalline compound by LC-MS/MS analysis; type: ADME, organism-based; settings: in vivo
[16] = Oral bioavailability in Han Wistar rat at 100 mg/kg administered via gavage using crystalline compound by LC-MS/MS analysis; type: ADME, organism-based; settings: in vivo
[17] = Oral bioavailability in Beagle dog at 5 mg/kg administered via gavage using crystalline compound by LC-MS/MS analysis; type: ADME, organism-based, Canis lupus familiaris; settings: in vivo
[18] = Oral bioavailability in Beagle dog at 30 mg/kg administered via gavage using crystalline compound by LC-MS/MS analysis; type: ADME, organism-based, Canis lupus familiaris; settings: in vivo
[19] = AUC (0 to t) in Beagle dog at 30 mg/kg, po administered via gavage using crystalline compound by LC-MS/MS analysis; type: ADME, organism-based, Canis lupus familiaris; settings: in vivo
[20] = biological target: T1, Indoleamine 2,3-dioxygenase 1; assay: Binding affinity to IDO1 holoenzyme (unknown origin) assessed as red shift in soret band at 10 uM measured after 2 hrs by UV-vis spectra analysis
Target sequence in this assay (P14902 whole entry, looked up): as the sequence (P14902 whole entry) above

[21] = Oral bioavailability in CD-1 mouse assessed as (S)-Ethyl 6-Bromo-4-(1H-indazole-7-carboxamido)spiro-[chroman-2,4'-piperidine]-1'-carboxylate level at 3 mg/kg equiv of parent compound administered via gavage using crystalline compound by LC-MS/MS analysis; type: ADME, organism-based; settings: in vivo
[22] = Oral bioavailability in CD-1 mouse assessed as (S)-Ethyl 6-Bromo-4-(1H-indazole-7-carboxamido)spiro-[chroman-2,4'-piperidine]-1'-carboxylate level at 30 mg/kg equiv of parent compound administered via gavage using crystalline compound by LC-MS/MS analysis; type: ADME, organism-based; settings: in vivo
[23] = Oral bioavailability in CD-1 mouse assessed as (S)-Ethyl 6-Bromo-4-(1H-indazole-7-carboxamido)spiro-[chroman-2,4'-piperidine]-1'-carboxylate level at 89 mg/kg equiv of parent compound administered via gavage using crystalline compound by LC-MS/MS analysis; type: ADME, organism-based; settings: in vivo
[24] = Oral bioavailability in CD-1 mouse assessed as (S)-Ethyl 6-Bromo-4-(1H-indazole-7-carboxamido)spiro-[chroman-2,4'-piperidine]-1'-carboxylate level at 267 mg/kg equiv of parent compound administered via gavage using crystalline compound by LC-MS/MS analysis; type: ADME, organism-based; settings: in vivo
[25] = Oral bioavailability in Beagle dog assessed as (S)-Ethyl 6-Bromo-4-(1H-indazole-7-carboxamido)spiro-[chroman-2,4'-piperidine]-1'-carboxylate level at 3 mg/kg equiv of parent compound administered via gavage using crystalline compound by LC-MS/MS analysis; type: ADME, organism-based, Canis lupus familiaris; settings: in vivo
[26] = Oral bioavailability in Beagle dog assessed as (S)-Ethyl 6-Bromo-4-(1H-indazole-7-carboxamido)spiro-[chroman-2,4'-piperidine]-1'-carboxylate level at 30 mg/kg equiv of parent compound administered via gavage using crystalline compound by LC-MS/MS analysis; type: ADME, organism-based, Canis lupus familiaris; settings: in vivo
[27] = Oral bioavailability in Beagle dog assessed as (S)-Ethyl 6-Bromo-4-(1H-indazole-7-carboxamido)spiro-[chroman-2,4'-piperidine]-1'-carboxylate level at 89 mg/kg equiv of parent compound administered via gavage using crystalline compound by LC-MS/MS analysis; type: ADME, organism-based, Canis lupus familiaris; settings: in vivo
[28] = AUC (0 to t) in Beagle dog assessed as (S)-Ethyl 6-Bromo-4-(1H-indazole-7-carboxamido)spiro-[chroman-2,4'-piperidine]-1'-carboxylate level at 30 mg/kg equiv of parent compound administered via oral gavage using crystalline compound by LC-MS/MS analysis; type: ADME, organism-based, Canis lupus familiaris; settings: in vivo
[29] = tested on: Homo sapiens; assay: In vivo inhibition of IDO1 in human at 60 mg, po bid measured after 24 hrs relative to control; type: functional
[30] = Mutagenicity in Salmonella typhimurium in presence of S9 fraction by Ames test; settings: salmonella enterica subsp. enterica serovar typhimurium
[31] = Mutagenicity in Salmonella typhimurium in absence of S9 fraction by Ames test; type: toxicity; settings: salmonella enterica subsp. enterica serovar typhimurium

## CCOC(=O)N1CCC2(CC1)C[C@H](NC(=O)c1cccc3cn[nH]c13)c1cc(CC)ccc1O2
[1]
  CC50 at 48 h: > 10 µM

## CCOC(=O)N1CCC2(CC1)CC(NC(=O)c1cccc3cn[nH]c13)c1ccccc1O2 (racemic)
[1]
  CC50 at 48 h: > 10 µM

## CCOC(=O)N1CCC2(CC1)C[C@H](NC(=O)c1cccc3c1NC(=O)C3=O)c1cc(Br)ccc1O2
[1]
  CC50 at 48 h: > 10 µM

## CCOC(=O)N1CCC2(CC1)C[C@H](NC(=O)c1cccc3c1NC(=O)C3)c1cc(Br)ccc1O2
[1]
  CC50 at 48 h: > 10 µM

## COC(=O)N1CCC2(CC1)C[C@H](NC(=O)c1cccc3cn[nH]c13)c1cc(Br)ccc1O2
[1]
  CC50 at 48 h: 6.31 µM
[2]
  IC50: 0.0043 µM

## CC(C)(C)OC(=O)N1CCC2(CC1)CC(NC(=O)c1cccc3cc[nH]c13)c1ccccc1O2 (racemic)
[1]
  CC50 at 48 h: 5.01 µM
[3]
  clearance: 55 mL/min/kg

## CCOC(=O)N1CCC2(CC1)C[C@H](NC(=O)c1cccc3cn[nH]c13)c1cc(Br)ncc1O2
[1]
  CC50 at 48 h: > 10 µM
[2]
  IC50: 0.021 µM

## CCCOC(=O)N1CCC2(CC1)C[C@H](NC(=O)c1cccc3cn[nH]c13)c1cc(Br)ccc1O2
[1]
  CC50 at 48 h: > 10 µM

## CCOC(=O)N1CCC2(CC1)C[C@H](NC(=O)c1ccccc1O)c1cc(Br)ccc1O2
[1]
  CC50 at 48 h: > 10 µM

## CCOC(=O)N1CCC2(CC1)CC(NC(=O)c1cccc3cc[nH]c13)c1ccccc1O2 (racemic)
[1]
  CC50 at 48 h: > 10 µM

## CC(C)OC(=O)N1CCC2(CC1)C[C@H](NC(=O)c1cccc3cn[nH]c13)c1cc(Br)ccc1O2
[1]
  CC50 at 48 h: > 10 µM

## CCOC(=O)N1CCC2(CC1)C[C@H](NC(=O)c1cccc3c1OCO3)c1cc(Br)ccc1O2
[1]
  CC50 at 48 h: > 10 µM

## CCOC(=O)N1CCC2(CC1)C[C@H](NC(=O)c1cccc3cn[nH]c13)c1cc(C(=O)OC)ccc1O2
[1]
  CC50 at 48 h: > 10 µM

## CCOC(=O)N1CCC2(CC1)C[C@H](NC(=O)c1cccc3cn[nH]c13)c1cc(OC)ccc1O2
[1]
  CC50 at 48 h: > 10 µM

## CCOC(=O)N1CCC2(CC1)C[C@H](NC(=O)c1ccccc1NC(=O)C(F)(F)F)c1cc(Br)ccc1O2
[1]
  CC50 at 48 h: > 10 µM

## CCOC(=O)N1CCC2(CC1)C[C@H](NC(=O)c1cccc3cn(COP(=O)(O)O)nc13)c1cc(Br)ccc1O2
[4]
  solubility: > 1000 µg/mL
[5]
  F: 65%
[6]
  F: 95%
[7]
  F: 91%

## CCOC(=O)N1CCC2(CC1)C[C@H](NC(=O)c1cccc3cn[nH]c13)c1cc(Br)ccc1O2
[1]
  CC50 at 48 h: > 10 µM
[3]
  clearance: 10 mL/min/kg
[8]
  CL: 8%
[9]
  clearance: 11.7 mL/min/kg
[10]
  CL: 15%
[11]
  clearance: 6.1 mL/min/kg
[12]
  CL: 14%
[13]
  solubility thermodynamic: 18.4 µg/mL (≈ 35.8 µM)
[14]
  bioavailability: 11%
[15]
  bioavailability: 6%
[16]
  bioavailability: 3%
[17]
  bioavailability: 7%
[18]
  bioavailability: 0.2%
[19]
  AUC(0-t): 44.7 ng·h/mL

## CCOC(=O)N1CCC2(CC1)C[C@H](NC(=O)c1cccc3cn[nH]c13)c1cc(C#N)ccc1O2
[1]
  CC50 at 48 h: > 10 µM

## CCOC(=O)N1CCC2(CC1)C[C@H](NC(=O)c1cccc3cn[nH]c13)c1ccccc1O2
[1]
  CC50 at 48 h: > 10 µM

## CCOC(=O)N1CCC2(CC1)C[C@H](NC(=O)c1cccc3ocnc13)c1cc(Br)ccc1O2
[1]
  CC50 at 48 h: > 10 µM

## CCOC(=O)N1CCC2(CC1)C[C@H](NC(=O)c1cccc3c1NC(=O)CO3)c1cc(Br)ccc1O2
[1]
  CC50 at 48 h: > 10 µM

## NS(=O)(=O)NCCNc1nonc1/C(=N/O)Nc1ccc(F)c(Br)c1
[20]
  Activity: inactive

## CC(C)(C)OC(=O)N1CCC2(CC1)C[C@H](NC(=O)c1cccc3cn[nH]c13)c1cc(Br)ccc1O2
[1]
  CC50 at 48 h: > 10 µM

## CCOC(=O)N1CCC2(CC1)C[C@H](NC(=O)c1cccc3[nH]c(=O)[nH]c13)c1cc(Br)ccc1O2
[1]
  CC50 at 48 h: > 10 µM

## CCOC(=O)N1CCC2(CC1)C[C@H](NC(=O)c1cccc3nn[nH]c13)c1cc(Br)ccc1O2
[1]
  CC50 at 48 h: > 10 µM

## CC(C)CN(CC(C)C)c1ccc([C@H](C)CC(=O)O)cc1Nc1nc(C(F)(F)F)ns1
[20]
  Activity: inactive

## CCOC(=O)N1CCC2(CC1)C[C@H](NC(=O)c1cccc3[nH]ncc13)c1cc(Br)ccc1O2
[1]
  CC50 at 48 h: > 10 µM

## CCOC(=O)N1CCC2(CC1)C[C@H](NC(=O)c1cccc3cc[nH]c13)c1cc(Br)ccc1O2
[1]
  CC50 at 48 h: > 10 µM

## CCOC(=O)N1CCC2(CC1)C[C@@H](NC(=O)c1cccc3cn[nH]c13)c1ccccc1O2
[1]
  CC50 at 48 h: > 10 µM

## CCOC(=O)N1CCC2(CC1)C[C@H](NC(=O)c1cccc3cn[nH]c13)c1nc(OC)ccc1O2
[1]
  CC50 at 48 h: > 10 µM
[2]
  IC50: 0.0064 µM

## CCOC(=O)N1CCC2(CC1)C[C@H](NC(=O)c1cccc3cn(COP(=O)(O)O)nc13)c1cc(Br)ccc1O2.NC(CO)(CO)CO.NC(CO)(CO)CO
[13]
  solubility thermodynamic: > 1000 µg/mL
[21]
  F: 33%
[22]
  F: 24%
[23]
  F: 31%
[24]
  F: 45%
[25]
  F: 37%
[26]
  F: 32%
[27]
  F: 21%
[28]
  AUCt: 8606 ng·h/mL
[29]
  inhibition (INH): 90%
[30]
  Activity: Non-Toxic
[31]
  Activity: Non-Toxic

## CCOC(=O)N1CCC2(CC1)C[C@H](NC(=O)c1cccc3cn[nH]c13)c1cc(C(=O)O)ccc1O2
[1]
  CC50 at 48 h: > 10 µM

## CCOC(=O)N1CCC2(CC1)C[C@H](NC(=O)c1ccccc1OC)c1cc(Br)ccc1O2
[1]
  CC50 at 48 h: > 10 µM

## CCOC(=O)N1CCC2(CC1)C[C@H](NC(=O)c1cccc3nc[nH]c13)c1cc(Br)ccc1O2
[1]
  CC50 at 48 h: > 10 µM
